Marks after values point to notes of the source that are not given here.
Experiments:
[1] = test system: HCl-Ethanol inducing gastritis model; assay: HCl-Ethanol inducing gastritis model; type: in vivo, white rats; settings: for anti-gastritis efficacy: all administration groups
Method: After white rats have been fasted for 24 hours, CD-101, CD-102 and CD-103 compound have been orally administered according to method disclosed in Mizui et al., Jap. J. Pharmacol. 33: pp. 939-945 (1983). After 1 hour, 1.5 ml of 60% ethanol including 150 mM HCl has been orally administered to each animal. 1 hour later, animals have been sacrificed by cervical dislocation. After removing the stomach, the stomach has been fixed by injection of 13 ml of 2% formalin for 1 hour. After fixed stomach has been spread out, the lesion area has been measured using the photo by digital camera. Computer program Image J 1.38 (NIH, Bethesda, Md.) has been applied for measuring gastric lesion area (mm^2) The lesion inhibition rate has been calculated according to following equation. Further, 50% effective dose (ED50) has been also calculated using regression analysis.
Lesion inhibition rate(%)={gastric lesion area of control group(mm^2)−gastric lesion area of drug administration group(mm^2)}/gastric lesion area of control group(mm^2)×100

[2] = test system: indomethacin inducing stomach ulcer model; assay: Indomethacin inducing stomach ulcer model; type: in vivo, white rats; settings: oral; for anti-stomach ulcer efficacy: all administration groups
Method: After white rats have been fasted for 24 hours, CD-101, CD-102 and CD-103 compound have been orally administered according to method disclosed in Yamasaki et al., Jap. J. Pharmacol. 49: pp. 441-448 (1989). After 1 hour, indomethacin (50 mg/kg) has been orally administered to each animal After fasting for 5 hours, animals have been sacrificed by cervical dislocation. After removing the stomach, the stomach has been fixed by injection of 13 ml of 2% formalin for 1 hour. After fixed stomach has been spread out, the lesion area has been measured using the photo by digital camera. Computer program Image J 1.38 (NIH, Bethesda, Md.) has been applied for measuring gastric lesion area (mm^2) The lesion inhibition rate and 50% effective dose (ED50) have been calculated as the same manner of HCl-EtOH model.

[3] = test system: Chinese hamster lung (CHL) cell; assay: Chromosomal aberration test using Chinese hamster lung (CHL) cell; type: cell-based; settings: for induction of chromosomal aberration: CHL cell, overall conclusion
Text: For measuring the induction of chromosomal aberration, the chromosomal aberration test has been carried out using Chinese hamster lung (CHL) cell. 2 kinds of methods have been adopted, such as, metabolic activation method (+S9) using metabolic activation system and direct method (−S9) without metabolic activation system.
For determining the test material reacting concentration, the cell growth inhibition test has been carried out. The test material has been dissolved and diluted in dimethyl sulfoxide (DMSO). Regardless of metabolic activation system, 12 concentration steps (2.43, 4.87, 9.75, 19.5, 39.1, 78.1, 156.3, 312.5, 625, 1250, 2500, 5000 μg/ml) of test material have been prepared. The cells have been cultured for 24 hours as the same way of main test. […] The medium has been further cultured for 18 hours.
Based upon the data of cell growth inhibition test, maximum concentration has been determined when the cell growth has been inhibited up to 50% as the relative cell numbers.
Regardless of metabolic activation system, the test materials have been prepared after 24 hours from the initiation of test. Then, the number of chromosomal aberration has been counted.

Row | Structure (SMILES) | anti-gastritis efficacy ([1]; oral) | Lesion inhibition rate ([1]; oral, dose 1 mg/kg) | Lesion inhibition rate ([1]; oral, dose 3 mg/kg) | Lesion inhibition rate ([1]; oral, dose 10 mg/kg) | anti-stomach ulcer efficacy [2] | Lesion inhibition rate ([2]; dose 1 mg/kg) | Lesion inhibition rate ([2]; dose 3 mg/kg) | Lesion inhibition rate ([2]; dose 10 mg/kg) | Chromosomal aberration test Results ([3]; +S9, dose 10 μg/kg) | induction of chromosomal aberration [3] | Chromosomal aberration test Results ([3]; −S9, dose 2.5 μg/ml) | Chromosomal aberration test Result ([3]; Table 5, +S9, dose not stated) | Chromosomal aberration test Result ([3]; Table 5, −S9, dose not given) | further results
1 | C=C1C(=O)O[C@@H]2[C@@H]3[C@@H](CC[C@@]3(C)O)C(=C)CC[C@@H]12 [CD-102] | dose dependent manner | 43.0% | 70.4% | 94.9% | dose dependent manner | 41.6% | 56.1% | 77.2% | negative | do not induce the chromosomal aberration | negative | – | – | ED50 ([1]; Rattus norvegicus, oral, regression analysis of lesion inhibition, read-out: 50% effective dose (ED50)): 1.31 mg/kg; Gastric lesion area ([1]; oral, dose 1 mg/kg): 133.5 ± 21.0* mm^2; Gastric lesion area ([1]; oral, dose 3 mg/kg): 69.4 ± 18.4* mm^2; Gastric lesion area ([1]; oral, dose 10 mg/kg): 11.9 ± 10.0* mm^2; ED50 ([2]; Rattus norvegicus, regression analysis of lesion inhibition, read-out: 50% effective dose (ED50)): 1.82 mg/kg; Gastric lesion area ([2]; dose 1 mg/kg): 35.0 ± 5.2 mm^2; Gastric lesion area ([2]; dose 3 mg/kg): 26.3 ± 6.8* mm^2; Gastric lesion area ([2]; dose 10 mg/kg): 13.6 ± 2.9* mm^2; Chromosomal aberration test Results ([3]; +S9, dose 5 μg/kg): negative; Chromosomal aberration test Results ([3]; +S9, dose 20 μg/kg): negative; Chromosomal aberration test Results ([3]; −S9, dose 1.25 μg/kg): negative; Chromosomal aberration test Results ([3]; −S9, dose 5 μg/kg): negative
2 | CO[C@@]12[C@H](COC(N)=O)C3=C(C(=O)C(C)=C(N)C3=O)N1C[C@@H]1N[C@@H]12 [Mitomycin C, reference compound] | – | – | – | – | – | – | – | – | – | – | – | – | – | Chromosomal aberration test Results ([3]; −S9, dose 0.5 μg/kg): positive
3 | C=C1C(=O)O[C@@H]2[C@@H](O)[C@]3(C)CC[C@H]3[C@](C)(OC)CC[C@@H]12 [CD-101] | dose dependent manner | 42.3% | 74.7% | 91.8% | dose dependent manner | 26.9% | 56.6% | 73.1% | negative | do not induce the chromosomal aberration | negative | – | – | Chromosomal aberration test Results ([3]; +S9, dose 20 μg/kg): negative; Chromosomal aberration test Results ([3]; +S9, dose 40 μg/kg): negative; Chromosomal aberration test Results ([3]; −S9, dose 5 μg/kg): negative; Chromosomal aberration test Results ([3]; −S9, dose 10 μg/kg): negative
4 | O=C(NC(Cc1cc(=O)[nH]c2ccccc12)C(=O)O)c1ccc(Cl)cc1 (stereo not drawn) [Rebamipide, reference compound] | – | – | – | – | – | – | – | – | – | – | – | – | – | Lesion inhibition rate ([1]; oral, dose 50 mg/kg): 30%; Lesion inhibition rate ([2]; dose 50 mg/kg): 49.6%
5 | C=C1C(=O)O[C@@H]2/C=C(\C)CCC(O)C(C)(O)C[C@@H](OC(C)=O)C12 (stereo partly drawn) [reference compound] | – | – | – | – | – | – | – | – | – | – | – | positive positive | positive positive | –
6 | C=C1C(=O)O[C@@H]2[C@@H]3[C@@H](CC[C@@]3(C)O)[C@](C)(OC)CC[C@@H]12 [CD-103] | dose dependent manner | 56.9% | 66.9% | 99.5% | dose dependent manner | 37.9% | 57.3% | 74.0% | negative | do not induce the chromosomal aberration | negative | – | – | Lesion inhibition rate ([1]; oral, dose 30 mg/kg): 99.5%; 50% effective dose (ED50) ([1]; oral, regression analysis of lesion inhibition): 2.55 mg/kg; 50% effective dose (ED50) ([2]; regression analysis of lesion inhibition): 2.06 mg/kg; Chromosomal aberration test Results ([3]; +S9, dose 2.5 μg/ml): negative; Chromosomal aberration test Results ([3]; +S9, dose 5 μg/kg): negative; Chromosomal aberration test Results ([3]; −S9, dose 0.625 μg/kg): negative; Chromosomal aberration test Results ([3]; −S9, dose 1.25 μg/kg): negative
7 | C=C1C(=O)O[C@@H]2/C=C(\C)CC/C=C(\C)C[C@@H](OC(C)=O)C12 (stereo partly drawn) [reference compound] | – | – | – | – | – | – | – | – | – | – | – | positive positive | positive positive | –
8 | CC(=O)O[C@@H]1/C=C(\C)CCC/C(C)=C/[C@H]2OC(=O)[C@H](CN(C)C)C12 (stereo partly drawn) [reference compound] | – | – | – | – | – | – | – | – | – | – | – | positive positive | positive positive | –
9 | CC1=C2C3OC(=O)[C@@H](C)[C@@H]3CC[C@@]2(C)C=CC1=O (stereo partly drawn) | – | – | – | – | – | – | – | – | – | – | – | – | – | Lesion inhibition rate ([1]; Table 2, ineffective compounds, dose not stated): no effect

From patent publication US20150299155A1, “Sesquiterpene lactone-based pharmaceutical composition for treating gastrointestinal diseases” (CHO DANG PHARM. CO., LTD., priority 2012, published 2015)
